Measurements reported in patent US7202239B2, “Cyclohexylphenyl carboxamides tocolytic oxytocin receptor antagonists” (Wyeth, priority 2001, dated 2007).

Target: T1, human oxytocin receptor (Homo sapiens, UniProt P30559)
T1 sequence (P30559 1-389): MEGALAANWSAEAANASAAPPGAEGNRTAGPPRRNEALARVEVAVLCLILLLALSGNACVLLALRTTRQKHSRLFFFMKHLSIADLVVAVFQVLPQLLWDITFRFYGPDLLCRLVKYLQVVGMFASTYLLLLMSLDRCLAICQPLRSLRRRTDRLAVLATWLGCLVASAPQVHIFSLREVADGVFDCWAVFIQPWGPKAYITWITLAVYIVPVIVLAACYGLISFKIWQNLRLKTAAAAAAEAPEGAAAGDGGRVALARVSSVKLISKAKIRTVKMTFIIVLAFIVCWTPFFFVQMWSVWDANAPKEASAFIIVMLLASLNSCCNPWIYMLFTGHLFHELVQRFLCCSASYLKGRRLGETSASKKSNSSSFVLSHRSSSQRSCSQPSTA
Assay: Oxytocin binding in CHO cell membranes expressing human oxytocin receptors
Conditions: [3H]oxytocin; for inhibition at 0.1 µM / OT % inhibition at 100 nM: 100 nM; for inhibition at 0.1 µM: read-out: OT % inhibition at 100 nM; for IC50: value in parentheses, read-out: OT (IC50)
Description: Oxytocin Binding in Chinese Hamster Ovary Cell Membranes Expressing Human Oxytocin Receptors
Chinese Hamster Ovary (CHO) cells stably transfected with the human oxytocin receptor (cf. Tanizawa et al., U.S. Pat. No. 5,466,584 (1995) to Rohto Pharmaceutical Co. Ltd., Osaka, Japan) were obtained from M. Thibonnier, Case Western Reserve University School of Medicine, Cleveland, Ohio. A. Passaging and Amplification of Cells: CHO cells transfected with the human oxytocin receptors obtained from M. Thibonnier (pcDNA3.1 vector) are allowed to grow to confluency (approx. >90%) in T-150 flasks under sterile conditions, in a cell culture medium of F-12 Nutrient Mixture (HAM) with L-glutamine (Gibco Cat. # 11765-054) containing 15 mM HEPES (Gibco Cat. # 15630-080), 1% antibiotic/antimycotic (add 5 mL 100×, Gibco Cat. # 15240-062 per 500 mL F-12), 400 μg/mL of Geneticin (add 4 mL of 50 mg/mL per 500 mL F-12) and 10% Fetal Bovine Serum (Qualified, heat inactivated, Gibco Cat. # 16140-063). The medium is removed by aspiration and the cells are washed with 10 mL of Hank's Balanced Salt solution (Gibco Cat. # 14175-095). The salt solution is removed by aspiration and the cells trypsinized with 5 mL of trypsin-EDTA (0.05% trypsin, 0.53 mM EDTA-4Na, Gibco Cat. # 25300-070) for 1 min The trypsin is removed by aspiration and the cells dislodged by tapping. Cell Culture medium (e.g. 30 mL for 1:30 split) is immediately added and mixed well to inactivate trypsin. 1 mL of detached cells is added to new culture flasks containing fresh Cell Culture medium (e.g. into 25 mL per T-150 flask), and mixed gently. The cells are incubated at 37° C. in 5% CO2. The medium is changed at 3 to 4 days interval (or as appropriate). The cells grow to confluency (approx. >75%–95%) within 7–8 days. All steps are done under sterile conditions. B. Membrane Preparation: The cells are washed twice gently with Hank's Balanced Salt solution (eg, use 10 mL per T-150 flask). The excess solution is removed and the cells bathed for 15–30 min. in an enzyme-free Cell Dissociation Buffer (eg, use 8 mL Hank's Based, Gibco Cat. # 13150-016 per T-150 flask) until cells are loosened. The contents are transferred to centrifuge tubes (50 mL size) kept in ice bath. All subsequent steps are done at 4° C. The tubes are centrifuged at 300×g for 15 min (1380 rpm on SORVAL, Model RT6000D, using rotor for 50 mL tubes). The supernatant is discarded and the cells suspended in homogenizing buffer (10 mM Tris-HCl containing 0.25 M sucrose and 1 mM EDTA, pH 7.4) ensuring that the volume of the buffer is about ten times the volume of the cell pellet. The cells are pooled into a centrifuge tube (50 mL) and homogenized with a Polytron at setting 6 for 10 sec. The homogenate is transferred into a Potter-Elvjehm homogenizer and homogenized with 3 strokes. The homogenate is centrifuged at 1500×g for 10 min at 4° C. (3100 rpm using SORVAL, model RT6000D, using rotor for 50 mL tubes). The pellet is discarded. The supernatant is centrifuged at 100,000×g for 60 min. at 4° C. (Beckman L8-80M ultracentrifuge; spin at 37,500 rpm with rotor type 70 Ti for 50 mL tubes; 38,000 rpm with type 80Ti for 15 mL tubes; or 35,800 rpm with rotor type 45Ti). The supernantant is discarded and the pellet suspended in 3 to 4 mL of Tris buffer (50 mM TRIS-HCl, pH 7.4). The protein content is estimated by the Bradford or Lowry method. The volume of the membrane suspension is adjusted with the membrane buffer (50 mM Tris-HCl containing 0.1% BSA and 0.1 mM PMSF) to give 3.0 mg/mL (or as appropriate) of protein. The membranes are aliquoted and stored at −70° C. C. Radioligand Binding Assay: In wells of a 96-well format microtiter plate, is added 90, 110 or 130 μL (to make up a final volume of 200 μL) of assay buffer containing 50 mM of Tris-HCl (pH 7.4), […], 1 mg % aprotinin, 1 mg % leupeptin, 2 mg % 1,10-phenanthroline, 10 mg % trypsin inhibitor, and 0.1 mM PMSF. […]

SMILES	inhibition at 0.1 µM	further results
O=C(c1ccc2n1Cc1ccccc1N(C(=O)c1ccc(C3CCCCC3)cc1)C2)N1CCN(CCN2CCOCC2)CC1 [Example 42, [10(4-Cyclohexyl-benzoyl)-10,11-dihydro-5H-pyrrolo[2,1-c][1,4]benzodiazepin-3-yl]{4-[2-(4-morpholinyl)ethyl]-1-piperazinyl}methanone]	65%	–
CN(C)[C@@H]1CCN(C(=O)c2ccc3n2Cc2ccccc2N(C(=O)c2ccc(C4CCCCC4)cc2)C3)C1 [Example 47, [10-(4-Cyclohexyl-benzoyl)-10,11-dihydro-5H-pyrrolo[2,1-C][1,4]benzodiazepin-3-yl][(3R)-3-(dimethylamino)pyrrolidinyl]methanone]	–	OT % inhibition at 100 nM: 82%
O=C(c1ccc2n1Cc1ccccc1N(C(=O)c1ccc(C3CCCCC3)cc1)C2)N1CCN(c2ccccn2)CC1 [Example 28, [10-(4-Cyclohexyl-benzoyl)-10,11-dihydro-5H-pyrrolo[2,1-c][1,4]benzodiazepine 3-yl][4-(2-pyridinyl)-1-piperazinyl]-methanone]	–	IC50: 111 nM
O=C(NNC(=O)c1ccc2n1Cc1ccccc1N(C(=O)c1ccc(C3CCCCC3)cc1)C2)Nc1ccccc1 [Example 15, 2-{[10-(4-Cyclohexyl-benzoyl)-10,11-dihydro-5H-pyrrolo[2,1-c][1,4]benzodiazepin-3-yl]carbonyl}-N-phenyl-1-hydrazinecarboxamide]	16%	–
Cc1cccc(C(=O)NNC(=O)c2ccc3n2Cc2ccccc2N(C(=O)c2ccc(C4CCCCC4)cc2)C3)c1 [Example 14, 10-(4-Cyclohexyl-benzoyl)-N′-(3-methyl-benzoyl)-10,11-dihydro-5H-pyrrolo[2,1-c][1,4]benzodiazepine-3-carbonyl-hydrazide]	–	OT % inhibition at 100 nM: 53%
CC(C)N1CCN(C(=O)c2ccc3n2Cc2ccccc2N(C(=O)c2ccc(C4CCCCC4)cc2)C3)CC1 [Example 44, [10-(4-Cyclohexyl-benzoyl)-10,11-dihydro-5H-pyrrolo[2,1-c][1,4]benzodiazepin-3-yl](4-isopropyl-1-piperazinyl)methanone]	2%	–
O=C(C(=O)N1CCC(N2CCCCC2)CC1)c1ccc2n1Cc1ccccc1N(C(=O)c1ccc(C3CCCCC3)cc1)C2 [Example 31, 1-[1.4′]Bipiperidinyl-1′-yl-2-[10-(4-cyclohexyl-benzoyl)-10,11-dihydro-5H-pyrrolo[2,1-c][1,4]benzodiazepin-3-yl]-ethane-1,2-dione]	–	OT % inhibition at 100 nM: 89%
CN(C)CCCN1CCN(C(=O)c2ccc3n2Cc2ccccc2N(C(=O)c2ccc(C4CCCCC4)cc2)C3)CC1 [Example 45, [10-(4-Cyclohexyl-benzoyl)-10,11-dihydro-5H-pyrrolo[2,1-c][1,4]benzodiazepin-3-yl]{4-[3-(dimethylamino)propyl]-1-piperazinyl}methanone]	71%	–
O=C(NNC(=O)C1CC1)c1ccc2n1Cc1ccccc1N(C(=O)c1ccc(C3CCCCC3)cc1)C2 [Example 13, 10-(4-Cyclohexyl-benzoyl)-N′-(cyclopropylcarbonyl)-10,11-dihydro-5H-pyrrolo[2,1-c][1,4]benzodiazepine-3-carbonyl-hydrazide]	–	OT % inhibition at 100 nM: 73%
O=C(NCc1cccnc1)c1ccc2n1Cc1ccccc1N(C(=O)c1ccc(C3CCCCC3)cc1)C2 [Example 51, 10-(4-Cyclohexyl-benzoyl)-N-(3-pyridinylmethyl)-10,11-dihydro-5H-pyrrolo [2,1-c][1,4]benzodiazepine-3-carboxamide]	-8%	–
CN1CCC(N(C)C(=O)c2ccc3n2Cc2ccccc2N(C(=O)c2ccc(C4CCCCC4)cc2)C3)C1 (stereo not shown) [Example 40, 10-(4-Cyclohexyl-benzoyl)-N-methyl-N-(1-methyl-3-pyrrolidinyl)-10,11-dihydro-5H-pyrrolo[2,1-c][1,4]benzodiazepine-3-carboxamide]	60%	–
CN(CCc1ccncc1)C(=O)c1ccc2n1Cc1ccccc1N(C(=O)c1ccc(C3CCCCC3)cc1)C2 [Example 55, 10-(4-Cyclohexyl-benzoyl)-N-methyl-N-[2(4-pyridinyl)ethyl]-10,11-dihydro-5H-pyrrolo[2,1-c][1,4]benzodiazepine-3-carboxamide]	91%	–
O=C(NCc1ccccn1)c1ccc2n1Cc1ccccc1N(C(=O)c1ccc(C3CCCCC3)cc1)C2 [Example 50, 10-(4-Cyclohexyl-benzoyl)-N-(2-pyridinylmethyl)-10,11-dihydro-5H-pyrrolo[2,1-c][1,4]benzodiazepine-3-carboxamide]	-8%	–
CN(Cc1cccnc1)C(=O)c1ccc2n1Cc1ccccc1N(C(=O)c1ccc(C3CCCCC3)cc1)C2 [Example 57, 10-(4-Cyclohexyl-benzoyl)-N-methyl-N-(3-pyridinylmethyl)-10,11-dihydro-5H-pyrrolo[2,1-c][1,4]benzodiazepine-3-carboxamide]	-4%	–
CC(=O)c1ccc2n1Cc1ccccc1N(C(=O)c1ccc(C3CCCCC3)cc1)C2 [Example 6, 1-[10-(4-Cyclohexyl-benzoyl)-10,11-dihydro-5H-pyrrolo[2,1-c][1,4]benzodiazepin-3-yl]-ethanone]	–	IC50: 105 nM
O=C(NCCc1ccccn1)c1ccc2n1Cc1ccccc1N(C(=O)c1ccc(C3CCCCC3)cc1)C2 [Example 49, 10-(4-Cyclohexyl-benzoyl)-N-[2-(2-pyridinyl)ethyl]-10,11-dihydro-5H-pyrrolo[2,1-c][1,4]benzodiazepine-3-carboxamide]	-2%	–
NNC(=O)c1ccc2n1Cc1ccccc1N(C(=O)c1ccc(C3CCCCC3)cc1)C2 [Example 8, 10-(4-Cyclohexy-benzoyl)-10,11-dihydro-5H-pyrrolo[2,1-c][1,4]benzodiazepine-3-carboxylic acid hydrazide]	–	IC50: 127 nM
CN(N)C(=O)c1ccc2n1Cc1ccccc1N(C(=O)c1ccc(C3CCCCC3)cc1)C2 [Example 21, 10-(4-Cyclohexyl-benzoyl)-N-methyl-10,11-dihydro-5H-pyrrolo[2,1-c][1,4]benzodiazepine-3-carboxylic acid hydrazide]	68%	–
O=C(c1ccc2n1Cc1ccccc1N(C(=O)c1ccc(C3CCCCC3)cc1)C2)N1CCN(CCO)CC1 [Example 48, [10-(4-Cyclohexyl-benzoyl)-10,11-dihydro-5H-pyrrolo[2,1-c][1,4]benzodiazepin-3-y][4-(2-hydroxyethyl)-1-piperazinyl]methanone]	–	OT % inhibition at 100 nM: 78%
